Like-named read-outs stand apart in the source and are kept apart here.

Data set [1] has as its system PAX6. Description: PAX6 mRNA (RT-PCR) and protein (SDS-PAGE vs GAPDH) expression in human corneal epithelial cells. In kind it is cell-based. The settings on record: for PAX6 protein expression: human cornea epithelium cells, 48 hours of treatment. The protocol:
For example, PD0325901 (PD) was tested in human corneal epithelial cells (HCEC).
HCEC were treated with a PD composition comprising 1 μM PD dissolved in culture media for up to 120 hours. PAX6 protein levels were detected by SDS-PAGE and quantified by comparing the levels of GAPDH protein (FIG. 1A). In the same treated corneal epithelial cells, PAX6 mRNA expression was measured by RT-PCR using three different primers. (FIG. 1B).
In summary, the MEK inhibition increased PAX6 mRNA and protein expressions in human corneal epithelial cells (2.7±0.2 & 3.0±0.3 folds).

For another data set, the system named is Aniridia mouse model. Description: P90 electroretinography (ERG) in Aniridia mouse model. The class given is in vivo. As for the experimental part:
Retina function was assessed in the Aniridia mouse model using P90 electroretinography (ERG). Aniridia mice were treated with the PD composition described in Example 1 or vehicle.

The subject of the next data set is mouse model of Aniridia. In kind it is in vivo. As to conditions: for Corneal stromal thickness: P30, OCT, central cornea, WT 50.5±1.1 μm; for PAX6 protein expression in corneas: P30 PAX6 staining, compared to control; for corneal whole mount CK12 staining intensity: P90, Normal CK12 intensity: 100%; for Corneal scarring (ratio of scar area to total corneal area): slit lamp images. The protocol: Aniridia is a human condition with PAX6 mutation that develops corneal scarring and neovascularization. The MEK pathway is known to inhibit the PAX6 pathway, therefore it was investigated whether MEK inhibitors can indirectly stimulate PAX6 production. MEK inhibitors were tested in vivo, in a mouse model of Aniridia which allowed for investigation corneal opacification, scarring and neovascularization. Oral and topical formulations were optimized using an exemplary MEK inhibitor, such as PD0325901 (PD).
Aniridia mice were treated with or topical PD composition or vehicle, from postnatal day P5 to P30. Wild type (WT) littermates were used as normal reference. OCT and slit lamp images were used to compare the corneal epithelial/stromal thickness, clarity and scarring. H&E and immunostaining with PAX6 and Cytokeratin (CK)12 were used to compare the morphology, protein expression and differentiation. P30 PAX6 staining confirmed increase in PAX6 protein expression in corneas with both oral (2.3±0.2 folds) and topical (2.5±0.1 folds) methods (P<0.001) (oral data not shown, topical data FIG. 3A).
FIG. 2 provides the data from the topical administration of PD compositions. […] The area of scarring was measured manually based on the corneal opacification in the scar area on the slit lamp images using ImageJ (NIH). The ratio of the scar area to total corneal area was reported as a percentage. […] These measurements show the promotion of a more normal differentiation of the corneal epithelium and stroma (FIG. 2). Corneal epithelial and stromal thicknesses were measured at the central cornea and outside the scar area via OCT imaging.
Hematoxylin and eosin (H&E) staining was carried out on Aniridia cornea tissue. […] FIG. 2 provides representative H&E staining of frozen sections from day 30).
Immunohistochemical staining of the mice eyes for DAPI, PAX6 and CK12 (a marker for normal corneal epithelium) was also carried out.

Another data set relates to ERK1 and ERK2. Briefly: Western blot of ERK1/ERK2 in human corneal epithelial cells. In kind it is cell-based. An excerpt: Western blot analysis of human corneal epithelial cells confirmed that this MEK inhibitor effectively and specifically suppresses ERK1 and ERK2, while having minimal effect on p38 as the control (FIG. 10).
Data set [2] relates to epithelial and limbal stem cell injury model. Briefly: Corneal injury model with limbal stem cell deficiency. The class given is in vivo, mouse. As to conditions: up to 1 month after injury. As for the experimental part: The formulation was tested in an epithelial and limbal stem cell injury model, in which we injured the epithelium of the cornea up to the limbal area, creating a severe scar forming wound with limbal stem cell deficiency.
The PD composition provided in Example 1 was tested in an injury model, in which we injured the epithelium of the cornea up to the limbal area, creating a severe scar forming wound with limbal stem cell deficiency. Using an alger brush, the corneal epithelium was scraped under general anesthesia from limbus to limbus to create a limbal stem cell deficiency model. Following this injury, corneal limbal stem cell deficiency happens, similar to human disease, and the cornea becomes scarred, opacified and vascularized by time.

In data set [3] the test system is PAX6. Description: PAX6 mRNA measurement in murine PAX6 heterozygote corneal MSCs. The class given is cell-based. The settings on record: n=3. The source says: Significance determined by t test. *P<0.05. Ctrl: control. RX: treatment.
Setting [4] is: human corneal epithelial cells, n=3, FIG. 1.

In the case of `O=C(c1ccc(F)c(F)c1Nc1ccc(I)cc1F)N1CC(O)([C@@H]2CCCCN2)C1` [Cobimetinib], the PAX6 protein expression entry with PAX6 [1] is reported as “induced PAX6 protein expression”. The PAX6 protein measurement entry with PAX6 [1] (setting [4]) is “can induce PAX6 expression”.
For the compound `O=C(NOC[C@H](O)CO)c1ccc(F)c(F)c1Nc1ccc(I)cc1F` [PD0325901, Mirdametinib], the ocular/retinal function result with Aniridia mouse model (P90 electroretinography, compared to the control group) is listed as “significantly better ocular/retinal function”. Besides, in the data set with Aniridia mouse model (topical, P90 ERG), the “Photopic β wave” value is recorded as 102.1 ± 50.9, the “Scotopic α wave” value was −214.5 ± 64.1 and the “Scotopic β wave” value came out at 244.8 ± 120.1. In addition, in the data set with PAX6 [1] (setting [4]), the “PAX6 mRNA measurement” value is “increase in PAX6 expression” and the PAX6 protein measurement result is given as “increase in PAX6 expression”. The “H&E histological pattern of cornea” value with mouse model of Aniridia (frozen sections, day 30) is on record as “more similar histological pattern to normal”. Also, the “toxicity of optimized formulation and dosage” value in the data set on mouse model of Aniridia (mouse, in vivo, po) is given as “no toxicity”. Besides, in the data set with mouse model of Aniridia (oral), the Corneal stromal thickness came to 24.7±4.1 μm, the “PAX6 protein expression in corneas” value was found to be 2.3±0.2 folds, the “corneal whole mount CK12 staining intensity” value was 64±3% and the “Corneal scarring (ratio of scar area to total corneal area)” value amounted to 2.1±0.4%. In addition, in the data set with mouse model of Aniridia (topical), the Corneal stromal thickness is reported as 25.5±4.7 μm, the “PAX6 protein expression in corneas” value was 2.5±0.1 folds, the “corneal whole mount CK12 staining intensity” value worked out at 69±32% and the “Corneal scarring (ratio of scar area to total corneal area)” value is on record as 2.3±0.6%. Further, the ERK1/ERK2 inhibition result with ERK1 and ERK2 is given as “specific ERK1/ERK2 inhibition”. Also, in data set [2], the corneal neovascularization entry is “significantly less” and the “corneal opacity / haziness” value is recorded as “significantly less”. In data set [2] (listed as PD), the corneal neovascularization entry was “significantly reduced” and the “corneal opacity / haziness” value is “significantly reduced”. Besides, in the data set with PAX6 [3], the “PAX6 mRNA measurement” value was “increase in PAX6 expression”.
Turning to `COc1cc(F)c(F)c(Nc2ccc(I)cc2F)c1NS(=O)(=O)C1(C[C@H](O)CO)CC1` [Refametinib, refametinib], the PAX6 protein expression entry in the data set with PAX6 [1] is reported as “induced PAX6 protein expression”. Also, the PAX6 protein measurement entry with PAX6 [1] (setting [4]) is listed as “can induce PAX6 expression”.

Source of the values: US20230190725A1, “MEK INHIBITORS FOR CORNEAL SCARRING AND NEOVASCULARIZATION” (THE BOARD OF TRUSTEES OF THE UNIVERSITY OF ILLINOIS, priority 2019, published 2023).
